Data as given in US10414740B2, “Glutaminase inhibitors and method of use” (Agios Pharmaceuticals, Inc., priority 2012, dated 2019).

Target: T1, glutaminase (GAC) (Homo sapiens, UniProt O94925)
T1 sequence (O94925 55-598 isoform O94925-3 limits assumed): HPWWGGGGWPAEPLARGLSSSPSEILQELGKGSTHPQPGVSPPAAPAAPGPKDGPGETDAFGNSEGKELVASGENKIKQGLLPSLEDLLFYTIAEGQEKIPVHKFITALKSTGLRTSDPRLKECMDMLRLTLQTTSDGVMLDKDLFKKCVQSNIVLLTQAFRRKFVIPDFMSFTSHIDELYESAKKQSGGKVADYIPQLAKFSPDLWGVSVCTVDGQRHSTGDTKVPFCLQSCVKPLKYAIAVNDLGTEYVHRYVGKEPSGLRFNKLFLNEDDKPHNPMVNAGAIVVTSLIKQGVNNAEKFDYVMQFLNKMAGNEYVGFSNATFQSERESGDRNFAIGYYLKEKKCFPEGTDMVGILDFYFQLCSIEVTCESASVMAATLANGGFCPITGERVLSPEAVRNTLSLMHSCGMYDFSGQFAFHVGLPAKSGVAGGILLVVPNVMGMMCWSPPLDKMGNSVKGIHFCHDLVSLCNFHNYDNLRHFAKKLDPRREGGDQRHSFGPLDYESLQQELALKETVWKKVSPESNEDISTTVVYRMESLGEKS
Assay: glutaminase coupled endpoint assay (Example A)
Format: biochemical
Conditions: inhibition of glutaminase; IC50 tested in an assay of Example A or Example B
Description: In this example, the enzymatic activity of glutaminase is measured through a coupled endpoint assay. […] The glutamate produced is converted to 2-OG by a kinetic excess of glutamate dehydrogenase. […] However, a kinetic excess of the third coupling enzyme, diaphorase, recycles NAD from NADH to keep the NAD concentration constant during the timecourse of the assay. Diaphorase, also supplied in kinetic excess, oxidizes NADH produced by GDH back to NAD with the concomitant reduction of rezasurin to the highly fluorescent resorufin. […] A reduction in the signal indicates inhibition of some component of the coupled enzyme system. Prospective hits are counterscreened against GDH/diaphorase alone to remove hits to the coupling enzyme system in a second assay.
2. […] Add 1 μl a compound in 100% DMSO 2. Add 40 μl of Enzyme Mix and incubate for 60 minute at room temperature 3. Add 10 μl of Substrate Mix to start reaction 4.

IC50 [nM]	Structure (SMILES)
< 100	O=C(Cc1ccccc1)Nc1nnc(CCS(=O)(=O)CCc2nnc(NC(=O)Cc3ccccc3)s2)s1 [Compound 4, N,N′-(5,5′-(sulfonylbis(ethane-2,1-diyl))bis(1,3,4-thiadiazole-5,2-diyl))bis(2-phenylacetamide)]
500 to 1000	O=C(Nc1nnc(CCSCCc2nnc(NC(=O)OC3CCCCC3)s2)s1)OC1CCCCC1 [Compound 8, Dicyclohexyl (5,5′-(thiobis(ethane-2,1-diyl))bis(1,3,4-thiadiazole-5,2-diyl))dicarbamate]
100 to 500	O=C(Cc1cccnc1)Nc1nnc(CCCCCc2nnc(NC(=O)Cc3cccnc3)s2)s1 [Compound 10, N,N′-(5,5′-(pentane-1,5-diyl)bis(1,3,4-thiadiazole-5,2-diyl))bis(2-(pyridin-3-yl)acetamide)]
100 to 500	O=C(Cc1ccccn1)Nc1nnc(CCCCCc2nnc(NC(=O)Cc3ccccn3)s2)s1 [Compound 11, N,N′-(5,5′-(pentane-1,5-diyl)bis(1,3,4-thiadiazole-5,2-diyl))bis(2-(pyridin-2-yl)acetamide)]
< 100	O=C(Cc1ccccn1)Nc1nnc(CCS(=O)(=O)CCc2nnc(NC(=O)Cc3ccccn3)s2)s1 [Compound 13, N,N′-(5,5′-(sulfonylbis(ethane-2,1-diyl))bis(1,3,4-thiadiazole-5,2-diyl))bis(2-(pyridin-2-yl)acetamide)]
< 100	O=C(Cc1cccnc1)Nc1nnc(CCS(=O)(=O)CCc2nnc(NC(=O)Cc3cccnc3)s2)s1 [Compound 14, N,N′-(5,5′-(sulfonylbis(ethane-2,1-diyl))bis(1,3,4-thiadiazole-5,2-diyl))bis(2-(pyridin-3-yl)acetamide)]
100 to 500	CC(C)(C)OC(=O)Nc1nnc(CCS(=O)(=O)CCc2nnc(NC(=O)OC(C)(C)C)s2)s1 [Compound 15, Di-tert-butyl (5,5′-(sulfonylbis(ethane-2,1-diyl))bis(1,3,4-thiadiazole-5,2-diyl))dicarbamate]
< 100	O=C(Nc1nnc(CCS(=O)(=O)CCc2nnc(NC(=O)OCc3ccccc3)s2)s1)OCc1ccccc1 [Compound 19, Dibenzyl (5,5′-(sulfonylbis(ethane-2,1-diyl))bis(1,3,4-thiadiazole-5,2-diyl))dicarbamate]
< 100	O=C(CCc1ccccc1)Nc1nnc(CCS(=O)(=O)CCc2nnc(NC(=O)CCc3ccccc3)s2)s1 [Compound 21, N,N′-(5,5′-(2,2′-sulfonylbis(ethane-2,1-diyl))bis(1,3,4-thiadiazole-5,2-diyl))bis(3-phenylpropanamide)]
100 to 500	CC(C)COC(=O)Nc1nnc(CCS(=O)(=O)CCc2nnc(NC(=O)OCC(C)C)s2)s1 [Compound 22, Diisobutyl (5,5′-(sulfonylbis(ethane-2,1-diyl))bis(1,3,4-thiadiazole-5,2-diyl))dicarbamate]
500 to 1000	CC(C)OC(=O)Nc1nnc(CCS(=O)(=O)CCc2nnc(NC(=O)OC(C)C)s2)s1 [Compound 23, Diisopropyl (5,5′-(sulfonylbis(ethane-2,1-diyl))bis(1,3,4-thiadiazole-5,2-diyl))dicarbamate]
1000 to 10000	O=C(Cc1ccccn1)Nc1nnc(CC/C=C/CCc2nnc(NC(=O)Cc3ccccn3)s2)s1 [Compound 25]
100 to 500	O=C(Cc1cccnc1)Nc1nnc(CCCc2nnc(NC(=O)Cc3cccnc3)s2)s1 [Compound 26, N,N′-(5,5′-(propane-1,3-diyl)bis(1,3,4-thiadiazole-5,2-diyl))bis(2-(pyridin-3-yl)acetamide)]
< 100	O=C(Cc1cccnc1)Nc1nnc(CCCCc2nnc(NC(=O)Cc3cccnc3)s2)s1 [Compound 28, N,N′-(5,5′-(butane-1,4-diyl)bis(1,3,4-thiadiazole-5,2-diyl))bis(2-(pyridin-3-yl)acetamide)]
< 100	NCCOc1ccc(CC(=O)Nc2nnc(CCS(=O)(=O)CCc3nnc(NC(=O)Cc4ccccc4)s3)s2)cc1 [Compound 29, 2-(4-(2-aminoethoxy)phenyl)-N-(5-(2-((2-(5-(2-phenylacetamido)-1,3,4-thiadiazol-2-yl)ethyl)sulfonyl)ethyl)-1,3,4-thiadiazol-2-yl)acetamide]
< 100	COc1ccc(CC(=O)Nc2nnc(CCS(=O)(=O)CCc3nnc(NC(=O)Cc4ccc(OC)c(OC)c4)s3)s2)cc1OC [Compound 30, N,N′-(5,5′-(2,2′-sulfonylbis(ethane-2,1-diyl))bis(1,3,4-thiadiazole-5,2-diyl))bis(2-(3,4-dimethoxyphenyl)acetamide)]

The remaining lines, values behind:

Structure (SMILES)	IC50 [nM]
O=C(Nc1nnc(CCSCCc2nnc(NC(=O)Oc3ccccc3)s2)s1)Oc1ccccc1 [Compound 1, Diphenyl (5,5′-(thiobis(ethane-2,1-diyl))bis(1,3,4-thiadiazole-5,2-diyl))dicarbamate]	1000 to 10000
O=C(Cc1ccccc1)Nc1nnc(CCCSCc2nnc(NC(=O)Cc3ccccc3)s2)s1 [Compound 6, 2-Phenyl-N-(5-(3-(((5-(2-phenylacetamido)-1,3,4-thiadiazol-2-yl)methyl)thio)propyl)-1,3,4-thiadiazol-2-yl)acetamide]	500 to 1000
O=C(Cc1ccccc1)Nc1nnc(CC[S+]([O-])CCc2nnc(NC(=O)Cc3ccccc3)s2)s1 [Compound 7, N,N′-(5,5′-(sulfinylbis(ethane-2,1-diyl))bis(1,3,4-thiadiazole-5,2-diyl))bis(2-phenyl Acetamide)]	100 to 500
c1ccc(CCNc2nnc(CCSCCc3nnc(NCCc4ccccc4)s3)s2)cc1 [Compound 9, 5,5′-(thiobis(ethane-2,1-diyl))bis(N-phenethyl-1,3,4-thiadiazol-2-amine)]	1000 to 10000
O=C(Cc1ccccc1)Nc1nnc(CCCCCCc2nnc(NC(=O)Cc3ccccc3)s2)s1 [Compound 12, N,N′-(5,5′-(hexane-1,6-diyl)bis(1,3,4-thiadiazole-5,2-diyl))bis(2-phenylacetamide)]	1000 to 10000
O=C(Cc1ccccn1)Nc1nnc(CCCCCCc2nnc(NC(=O)Cc3ccccn3)s2)s1 [Compound 16, N,N′-(5,5′-(hexane-1,6-diyl)bis(1,3,4-thiadiazole-5,2-diyl))bis(2-(pyridin-2-yl)acetamide)]	1000 to 10000
O=C(Cc1ccccn1)Nc1nnc(CC[S+]([O-])CCc2nnc(NC(=O)Cc3ccccn3)s2)s1 [Compound 17, N,N′-(5,5′-(sulfinylbis(ethane-2,1-diyl))bis(1,3,4-thiadiazole-5,2-diyl))bis(2-(pyridin-2-yl)acetamide)]	100 to 500
CN(C(=O)Nc1nnc(CCSCCc2nnc(NC(=O)N(C)c3ccccc3)s2)s1)c1ccccc1 [Compound 18, 1,1′-(5,5′-(thiobis(ethane-2,1-diyl))bis(1,3,4-thiadiazole-5,2-diyl))bis(3-methyl-3-phenylurea)]	1000 to 10000
O=C(CCc1ccccc1)Nc1nnc(CCCCCc2nnc(NC(=O)CCc3ccccc3)s2)s1 [Compound 20, N,N′-(5,5′-(pentane-1,5-diyl)bis(1,3,4-thiadiazole-5,2-diyl))bis(3-phenylpropanamide)]	1000 to 10000
O=C(Cc1ccccc1)Nc1nnc(CC[S+]([O-])CCC(=O)Nc2nnc(Cc3ccccc3)s2)s1 (stereo not drawn) [Compound 24]	1000 to 10000
O=C(Cc1cccnc1)Nc1nnc(C/C=C/Cc2nnc(NC(=O)Cc3cccnc3)s2)s1 [Compound 27, (E)-N,N′-(5,5′-(but-2-ene-1,4-diyl)bis(1,3,4-thiadiazole-5,2-diyl))bis(2-(pyridin-3-yl)acetamide)]	< 100
